≈ marks a conversion by molar mass, not a printed value. Read-outs that look alike come from different tables or passages of the source. Where only a bound is given, the exact number is not on record here.

Assay [1] deals with platelet aggregation. The experiment in a line: Effects on platelet aggregation in vitro (ADP-induced, rat platelet-rich plasma, Born type aggregometer). In kind it is cell-based, rats. To be noted: 2 min, read-out: 50% inhibitory concentrations (IC50). On the procedure:
1. Effects on platelet aggregation in vitro
Samples of blood are collected from rats weighing 400-450 g and mixed with a 1/10 volume of 3.8% sodium citrate solution. The citrated blood is centrifugated at 200×g for 10 minutes to yield platelet-rich plasma. Test compound is added to platelet-rich plasma thus obtained and maintained at 37° C. for 2 minutes. The platelet aggregation is induced by the addition of 10^-5 M adenosine diphosphate (final concentration) and measured with a Born type six channel aggregometer (Journal of Physiology, vol. 168, pp. 175-198, 1963.
50% inhibitory concentrations (IC50, μg/ml) as compared the control group are calculated. Aspirin and ticlopidine are employed as compounds for comparison.

Assay [2] has as its system platelet aggregation. The experiment in a line: Effects on platelet aggregation ex vivo (ADP-induced, rat platelet-rich plasma 2 hours after oral administration). To be noted: p.o., rats, after 2 hours, 10^-5 M adenosine diphosphate. In kind it is in vivo. The method, then:
2. Effects on platelet aggregation ex vivo
Test compound is orally administered to rats weighing 400-450 g. After 2 hours, samples of blood are collected from the rats and mixed with a 1/10 volume of 3.8% sodium citrate solution. The citrated blood is centrifugated at 200×g for 10 minutes to yield platelet-rich plasma. The platelet aggregation is induced by the addition of 10^-5 M adenosine diphosphate (final concentration) and measured with the same aggregometer as described in the above Method.
Percentage of inhibition as compared with the control group administered with the solvent are calculated.

[3] abbreviates: rat platelet-rich plasma, 37° C., 2 minutes, 10^-5 M adenosine diphosphate.

With `CC(=O)Oc1ccccc1C(=O)O` [Aspirin, reference compound], the IC50 in assay [1] (Rattus norvegicus, Platelet) was more than 300 µg/mL. For `Cc1nc2ccccn2c1C1=NNC(=O)CO1` [Example 1, 2-(2-methylimidazo[1,2-a]pyridin-3-yl)-4,6-dihydro-1,3,4-oxadiazin-5-one], in assay [2], the inhibition (in general, the change of the read-out against control, counted positive when it falls) at 10 mg/kg amounted to 75%. Also, the IC50 in assay [1] (setting [3]) was 1 µg/mL (≈ 4.34 µM). Take `Cc1nc2c(C)cccn2c1C1=NNC(=O)CO1` [Example 2, 2-(2,8-dimethylimidazo[1,2-a]pyridin-3-yl)-4,6-dihydro-1,3,4-oxadiazin-5-one]: the IC50 in assay [1] (setting [3]) is 1.9 µg/mL (≈ 7.78 µM).

Consider `Cc1ccc2nc(C)c(C3=NNC(=O)CO3)n2c1` [Example 3, 2-(2,6-dimethylimidazo[1,2-a]pyridin-3-yl)-4,6-dihydro-1,3,4-oxadiazin-5-one], for which the IC50 in assay [1] (setting [3]) is 3 µg/mL (≈ 12.3 µM). `Cc1nc2sccn2c1C1=NNC(=O)CO1` [Example 5, 2-(6-methylimidazo[2,1-b]thiazol-5-yl)-4,6-dihydro-1,3,4-oxadiazin-5-one]: in assay [2], the inhibition at 10 mg/kg was determined as 54%. Moreover, the IC50 in assay [1] (setting [3]) was determined as 0.5 µg/mL (≈ 2.12 µM). On to `O=C1COC(c2csc3nccn23)=NN1` [Example 16, 2-(Imidazo[2,1-b]thiazol-3-yl)-4,6-dihydro-1,3,4-oxadiazin-5-one], for which 10 mg/kg produced 60% inhibition in assay [2].

For the compound `Cc1c(C2=NNC(=O)CO2)sc2nccn12` [Example 17, 2-(3-Methylimidazo[2,1-b]thiazol-2-yl)-4,6-dihydro-1,3,4-oxadiazin-5-one], the inhibition at 10 mg/kg in assay [2] is 54%. Moreover, the IC50 in assay [1] (setting [3]) came out at 0.6 µg/mL (≈ 2.54 µM). On the same counts, the results for `O=C1COC(c2ccc3nccn3c2)=NN1` [Example 18, 2-(Imidazo[1,2-a]pyridin-6-yl)-4,6-dihydro-1,3,4-oxadiazin-5-one] are 65% and 0.4 µg/mL (≈ 1.85 µM).

Take `Cl.O=C1COC(c2cccn3ccnc23)=NN1` [Example 19, 2-(Imidazo[1,2-a]pyridin-8-yl)-4,6-dihydro-1,3,4-oxadiazin-5-one hydrochloride]: in assay [1] (Rattus norvegicus, Platelet), the IC50 was found to be 1 µg/mL.

`Clc1ccccc1CN1CCc2sccc2C1` [Ticlopidine, ticlopidine, reference compound]: in assay [1] (setting [3]), the IC50 was more than 300 µg/mL.

The values above are taken from patent publication US4713381A, “Oxodiazine compounds and pharmaceutical compositions thereof” (Yoshitomi Pharmaceutical Industries, Ltd., priority 1985, dated 1987).
